Test results from ChEMBL document CHEMBL1122962, “Molecular interactions of toxic chlorinated dibenzo-p-dioxins and dibenzofurans with thyroxine binding prealbumin” (J Med Chem, 1985).

Target: Transthyretin (Homo sapiens) (UniProt P02766)
Assay: Relative binding affinity against prealbumin in competition binding assay and expressed as relative to L-T4 (100)

Row | SMILES | Binding affinity
1 | Oc1c(I)cc(I)cc1I | 384
2 | N[C@@H](Cc1cc(I)c(Oc2cc(I)c(O)c(I)c2)c(I)c1)C(=O)O | 100
3 | O=C(O)CCCCC(=O)Nc1cc(Cl)cc2c1oc1cc(Cl)c(Cl)cc12 | 0.32
4 | O=C(O)CCCCC(=O)Nc1cc(Cl)cc2c1Oc1cc(Cl)c(Cl)cc1O2 | 15
